Assay: Test 1: Solubility Test (water as test medium, 37° C., HPLC)
Type: physicochemical
Details: for solubility in aqueous methyl cellulose or HPMC solution: test medium e.g. 0.5% aqueous methyl cellulose or HPMC solution, compared with value in water (below 3 μg/mL); for solubility (concentration of Compound A in suspension): 37° C., at the point of 30 minutes in Test 1
Procedure: Each mixture was sampled at several points of time, and each sample was filtered through a membrane filter (Sunprep LCR13-LG, manufactured by Millipore Corp., Japan).
The measurement conditions used for HPLC in Test 1 were as follows: • Detector: Ultraviolet absorptiometer (measurement wavelength: 246 nm) • Column: Stainless steel tube with an inner diameter of 4.6 mm and a length of 25 cm, for 5 μm liquid chromatography, • Column temperature: Fixed temperature at around 40° C. • Mobile phase: Mixture of methanol and water (55:45) • Flow rate: 1 mL/min

Structure (SMILES) | solubility in aqueous methyl cellulose or HPMC solution | solubility (concentration of Compound A in suspension) (water) [µg/mL] | solubility (water, 37 °C, water, thermodynamic from solid, water 37° C., 200 rpm paddles, at 30 minutes after the beginning of the test and after, read-out: concentration of Compound A in solubility test (FIG. 1)) [µg/mL]
COc1cc2[nH]c(=O)c3nn(C(OC(=O)OC(C)C)C(C)C)nc3c(=O)c2cc1OC (single isomer, unassigned) [Comparative Example 1, 2-(1-Isopropoxycarbonyloxy-2-methylpropyl)-7,8-dimethoxy-4(5H), 10-dioxo-2H-1,2,3-triazolo[4,5-c][1]benzazepine] | nearly equal to the above-described value of concentration | 0.8 | < 3
COc1cc2[nH]c(=O)c3nn(C(OC(=O)OC(C)C)C(C)C)nc3c(=O)c2cc1OC (single isomer, unassigned) [Comparative Example 2, 2-(1-Isopropoxycarbonyloxy-2-methylpropyl)-7,8-dimethoxy-4(5H), 10-dioxo-2H-1,2,3-triazolo[4,5-c][1]benzazepine] | nearly equal to the above-described value of concentration | 2.4 | 

From US20070167402A1, “Product of coprecipitation of sparingly soluble substance and water-soluble polymer and process for producing the same” (Meiji Seika Kaisha, Ltd., priority 2003, published 2007)
